Test system: redroot pigweed
Assay: Test Example 4: herbicidal effect by soil treatment (Table 19, symbol N)
Assay type: in vivo, redroot pigweed (Amaranthus retroflexus)
Conditions: amount of applied herbicide 320 g/ha
How it was run: (§1)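 Seeds were sown in sterilized diluvial soil and covered with about 1.5 cm of soil. An emulsion formulation diluted with water to a predetermined herbicide amount was sprayed evenly onto the soil surface. Plants grew in a greenhouse at 25° C. to 30° C., and the effect was scored three weeks after application using criteria from an earlier test.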

Row | SMILES | herbicidal effect on N: redroot pigweed
1 | Cc1nn(C)c(=O)c(-c2c(-c3ccc(OC(F)F)cc3)sc3ccc(F)cc23)c1OC(=O)OCCCl [2-293] | 5 (Herbicidal rate of 90% or more (almost completely withered))

Test system: oval-leafed pondweed
Assay: Test Example 2: herbicidal activity, application during weed generation under submerged conditions (Table 17, symbol C)
Assay type: in vivo, oval-leafed pondweed (Monochoria vaginalis)
Conditions: AAH 320 g/ha; application during weed generation, submerged conditions
How it was run: (§2)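 Mixed weed seedlings in alluvial soil under a 4 cm water layer, greenhouse-grown at 25–30° C. Compound given as a diluted emulsion into the floodwater at the 1–2 leaf stage; response graded after three weeks.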

Row | SMILES | herbicidal effect rating, C: oval-leafed pondweed
2 | Cc1nn(C)c(=O)c(-c2c(-c3ccc(OC(F)F)cc3)sc3ccc(F)cc23)c1OC(=O)OCCCl [2-293] | 4 (Herbicidal rate of 70% or more and less than 90%)

Test system: wild oat
Assay: Test Example 5: herbicidal effect by foliage application, plastic box (Table 20, symbol I)
Assay type: in vivo, wild oat (Avena fatua)
Conditions: foliage application, AAH 320 g/ha, evaluated three weeks after application
How it was run: (§3)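 Plants sown in sterilized diluvial soil and grown 14 days in a greenhouse at 25° C to 30° C, then sprayed on the foliage with the compound's emulsion diluted in water to a predetermined herbicide amount. Injury to weeds and crops scored three weeks after application on a visual rating scale.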

Row | SMILES | I: wild oat, herbicidal effect (criteria 0-5)
3 | Cc1nn(C)c(=O)c(-c2c(-c3ccc(OC(F)F)cc3)sc3ccc(F)cc23)c1OC(=O)OCCCl [2-293] | 3 (Herbicidal rate of 40% or more and less than 70%)

Test system: barnyard grass
Assay: Test Example 4: herbicidal effect by soil treatment (Table 19, symbol H)
Assay type: in vivo, barnyard grass (Echinochloa crus-galli)
Conditions: amount of applied herbicide 320 g/ha
How it was run: as §1

Row | SMILES | herbicidal effect on H: barnyard grass
4 | Cc1nn(C)c(=O)c(-c2c(-c3ccc(OC(F)F)cc3)sc3ccc(F)cc23)c1OC(=O)OCCCl [2-293] | 5 (Herbicidal rate of 90% or more (almost completely withered))

Test system: green foxtail
Assay: Test Example 4: herbicidal effect by soil treatment (Table 19, symbol G)
Assay type: in vivo, green foxtail (Setaria viridis)
Conditions: amount of applied herbicide 320 g/ha
How it was run: as §1

Row | SMILES | herbicidal effect on G: green foxtail
5 | Cc1nn(C)c(=O)c(-c2c(-c3ccc(OC(F)F)cc3)sc3ccc(F)cc23)c1OC(=O)OCCCl [2-293] | 5 (Herbicidal rate of 90% or more (almost completely withered))

Test system: chickweed
Assay: Test Example 5: herbicidal effect by foliage application, plastic box (Table 20, symbol P)
Assay type: in vivo, common chickweed (Stellaria media)
Conditions: foliage application, AAH 320 g/ha, evaluated three weeks after application
How it was run: as §3

Row | SMILES | P: chickweed, herbicidal effect (criteria 0-5)
6 | Cc1nn(C)c(=O)c(-c2c(-c3ccc(OC(F)F)cc3)sc3ccc(F)cc23)c1OC(=O)OCCCl [2-293] | 5 (Herbicidal rate of 90% or more (almost completely withered))

Test system: green foxtail
Assay: Test Example 5: herbicidal effect by foliage application, plastic box (Table 20, symbol G)
Assay type: in vivo, green foxtail (Setaria viridis)
Conditions: foliage application, AAH 320 g/ha, evaluated three weeks after application
How it was run: as §3

Row | SMILES | G: green foxtail, herbicidal effect (criteria 0-5)
7 | Cc1nn(C)c(=O)c(-c2c(-c3ccc(OC(F)F)cc3)sc3ccc(F)cc23)c1OC(=O)OCCCl [2-293] | 5 (Herbicidal rate of 90% or more (almost completely withered))

Test system: persian speedwell
Assay: Test Example 5: herbicidal effect by foliage application, plastic box (Table 20, symbol R)
Assay type: in vivo, Persian speedwell (Veronica persica)
Conditions: foliage application, AAH 320 g/ha, evaluated three weeks after application
How it was run: as §3

Row | SMILES | R: persian speedwell, herbicidal effect (criteria 0-5)
8 | Cc1nn(C)c(=O)c(-c2c(-c3ccc(OC(F)F)cc3)sc3ccc(F)cc23)c1OC(=O)OCCCl [2-293] | 5 (Herbicidal rate of 90% or more (almost completely withered))

Test system: Japanese bulrush
Assay: Test Example 2: herbicidal activity, application during weed generation under submerged conditions (Table 17, symbol B)
Assay type: in vivo, Japanese bulrush (Schoenoplectus juncoides)
Conditions: AAH 320 g/ha; application during weed generation, submerged conditions
How it was run: as §2

Row | SMILES | herbicidal effect rating, B: Japanese bulrush
9 | Cc1nn(C)c(=O)c(-c2c(-c3ccc(OC(F)F)cc3)sc3ccc(F)cc23)c1OC(=O)OCCCl [2-293] | 3 (Herbicidal rate of 40% or more and less than 70%)

Test system: southern crabgrass
Assay: Test Example 5: herbicidal effect by foliage application, plastic box (Table 20, symbol F)
Assay type: in vivo, southern crabgrass (Digitaria ciliaris)
Conditions: foliage application, AAH 320 g/ha, evaluated three weeks after application
How it was run: as §3

Row | SMILES | F: southern crabgrass, herbicidal effect (criteria 0-5)
10 | Cc1nn(C)c(=O)c(-c2c(-c3ccc(OC(F)F)cc3)sc3ccc(F)cc23)c1OC(=O)OCCCl [2-293] | 5 (Herbicidal rate of 90% or more (almost completely withered))

Test system: wild oat
Assay: Test Example 4: herbicidal effect by soil treatment (Table 19, symbol I)
Assay type: in vivo, wild oat (Avena fatua)
Conditions: amount of applied herbicide 320 g/ha
How it was run: as §1

Row | SMILES | herbicidal effect on I: wild oat
11 | Cc1nn(C)c(=O)c(-c2c(-c3ccc(OC(F)F)cc3)sc3ccc(F)cc23)c1OC(=O)OCCCl [2-293] | 0 (Herbicidal rate of 5% or less (almost no effect))

Test system: windgrass
Assay: Test Example 5: herbicidal effect by foliage application, plastic box (Table 20, symbol L)
Assay type: in vivo, windgrass (Apera spica-venti)
Conditions: foliage application, AAH 320 g/ha, evaluated three weeks after application
How it was run: as §3

Row | SMILES | L: windgrass, herbicidal effect (criteria 0-5)
12 | Cc1nn(C)c(=O)c(-c2c(-c3ccc(OC(F)F)cc3)sc3ccc(F)cc23)c1OC(=O)OCCCl [2-293] | 4 (Herbicidal rate of 70% or more and less than 90%)

Test system: chickweed
Assay: Test Example 4: herbicidal effect by soil treatment (Table 19, symbol P)
Assay type: in vivo, common chickweed (Stellaria media)
Conditions: amount of applied herbicide 320 g/ha
How it was run: as §1

Row | SMILES | herbicidal effect on P: chickweed
13 | Cc1nn(C)c(=O)c(-c2c(-c3ccc(OC(F)F)cc3)sc3ccc(F)cc23)c1OC(=O)OCCCl [2-293] | 4 (Herbicidal rate of 70% or more and less than 90%)

Test system: Japanese bulrush
Assay: Test Example 1: herbicidal activity, application before weed generation under submerged conditions (Table 16, symbol B)
Assay type: in vivo, Japanese bulrush (Schoenoplectus juncoides)
Conditions: 320 g/ha applied herbicide
How it was run: (§4)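 Submerged Wagner pots (alluvial soil, 4 cm water) sown with weed seeds and planted with 2.5-leaf rice seedlings; emulsifiable concentrate diluted in water applied to water surface on sowing day. Held in greenhouse at 25-30 °C; injury scored 0-5 by herbicidal rate after three weeks.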

Row | SMILES | Herbicidal effect on B: Japanese bulrush (grade 0-5)
14 | Cc1nn(C)c(=O)c(-c2c(-c3ccc(OC(F)F)cc3)sc3ccc(F)cc23)c1OC(=O)OCCCl [2-293] | 5 (Herbicidal rate of 90% or more (almost completely withered))

Test system: barnyard grass
Assay: Test Example 5: herbicidal effect by foliage application, plastic box (Table 20, symbol H)
Assay type: in vivo, barnyard grass (Echinochloa crus-galli)
Conditions: foliage application, AAH 320 g/ha, evaluated three weeks after application
How it was run: as §3

Row | SMILES | H: barnyard grass, herbicidal effect (criteria 0-5)
15 | Cc1nn(C)c(=O)c(-c2c(-c3ccc(OC(F)F)cc3)sc3ccc(F)cc23)c1OC(=O)OCCCl [2-293] | 5 (Herbicidal rate of 90% or more (almost completely withered))

Test system: oval-leafed pondweed
Assay: Test Example 1: herbicidal activity, application before weed generation under submerged conditions (Table 16, symbol C)
Assay type: in vivo, oval-leafed pondweed (Monochoria vaginalis)
Conditions: 320 g/ha applied herbicide
How it was run: as §4

Row | SMILES | Herbicidal effect on C: oval-leafed pondweed (grade 0-5)
16 | Cc1nn(C)c(=O)c(-c2c(-c3ccc(OC(F)F)cc3)sc3ccc(F)cc23)c1OC(=O)OCCCl [2-293] | 4 (Herbicidal rate of 70% or more and less than 90%)

— US20230085307A1, “PYRIDAZINONE COMPOUND AND HERBICIDE” (NISSAN CHEMICAL CORPORATION, priority 2019, published 2023)
